According to patent US20240423973A1, “COMPOUNDS, PHARMACEUTICAL COMPOSITIONS, AND METHODS FOR THE TREATMENT, PREVENTION, OR MANAGEMENT OF HYPERPROLIFERATIVE DISORDERS” (VINCERX PHARMA GMBH, priority 2021, published 2024):

Columns and labels:
NCI H292 = experiment: Cytotoxicity in vitro in the presence and absence of elastase (MTT assay); type: cell-based, human; details: NCI H292 cells, 72 h
Outline: (§1)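 Following a 24 h attachment period, cultures got fresh medium plus compound (10^−5–10^−13 M), with or without 10 nM elastase. After 72 h at 37 °C under 5% CO2, MTT (4 h) and overnight detergent lysis preceded a 570 nm read, scaled to untreated cells.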

786-O = experiment: as above; type: cell-based, human; details: 786-O cells, 72 h
Outline: as §1

HT29 = experiment: as above; type: cell-based, human; details: HT29 cells, 72 h
Outline: as §1

avb3 = experiment: EC50 [nM]
Text: Table printed on a drawing sheet, FIG. 4
Head of the field: EC50 [nM]
The patent's description of the figure: FIG. 4: avb3 binding of selected examples and EC50 values
First copying reader's note: EC50 values relate to the αvβ3 binding assay plotted next to the table; R^2 is the goodness of fit of the curve.
Where the first naming reader finds the target: description_of_the_figure: FIG. 4: avb3 binding of selected examples and EC50 values

SUM149 = experiment: Cytotoxicity in vitro in the presence and absence of elastase (MTT assay); type: cell-based; details: SUM149 cells, 72 h
Outline: as §1

| SMILES | IC50 (NCI H292; compound alone (no elastase)) [nM] | IC50 (NCI H292; with 10 nM elastase) [nM] | IC50 (786-O; compound alone (no elastase)) [nM] | IC50 (786-O; with 10 nM elastase) [nM] | IC50 (HT29; compound alone (no elastase)) [nM] | IC50 (HT29; with 10 nM elastase) [nM] | EC50 (avb3) [nM] | IC50 (SUM149; compound alone (no elastase)) [nM] | IC50 (SUM149; with 10 nM elastase) [nM] |
| --- | --- | --- | --- | --- | --- | --- | --- | --- | --- |
| CCCNC(=O)Nc1cccc(S(=O)(=O)Nc2cccc([C@@H](CC(=O)O)NC(=O)Nc3ccc(NC(=O)NCCC(=O)NCCCC[C@H](NC(=O)CCNC(=O)Nc4ccc(NC(=O)N[C@H](CC(=O)O)c5cccc(NS(=O)(=O)c6cccc(NC(=O)NCCC)c6)c5)cc4)C(=O)NCCOCCOCCOCCC(=O)N[C@@H](CC(=O)O)C(=O)N4CCC[C@H]4C(=O)N[C@H](C(=O)O[C@]4(CC)C(=O)OCc5c4cc4n(c5=O)Cc5c-4nc4ccccc4c5CC)C(C)C)cc3)c2)c1 [Compound A2] | 10 to 100 | 0.01 to 0.1 | 10 to 100 | 0.01 to 0.1 | > 100 | 0.01 to 0.1 | 97 | 10 to 100 | 0.01 to 0.1 |
| CCCNC(=O)Nc1cccc(S(=O)(=O)Nc2cccc(C(CC(=O)O)NC(=O)Nc3ccc(NC(=O)NCCOCCOCCOCCC(=O)NCCCCC(NC(=O)CCOCCOCCOCCNC(=O)Nc4ccc(NC(=O)NC(CC(=O)O)c5cccc(NS(=O)(=O)c6cccc(NC(=O)NCCC)c6)c5)cc4)C(=O)NCCOCCOCCOCCC(=O)NC(CC(=O)O)C(=O)N4CCCC4C(=O)NC(C(=O)OC4(CC)C(=O)OCc5c4cc4n(c5=O)Cc5c-4nc4ccccc4c5CC)C(C)C)cc3)c2)c1 (stereo not shown) [Compound A3] | – | – | – | – | – | – | 55 | – | – |
